System: SHBG
Experiment: Serum SHBG level prior to patch application in the pharmacokinetic study
Format: in vivo, human
Settings: mean±SEM, surgically menopausal women on the estrogen
Text: The structure and proposed functions of SHBG have been described and characterized. See, for example, Rosner et al., Sex Hormone-Binding Globulin Mediates Steroid Hormone Signal Transduction at the Plasma Membrane, J. Steroid Biochem. Mol. Biol. Vol. 69:481-5 (1999); Petra, P. H. The plasma Sex Steroid Binding Protein (SBP or SHBG). A Critical Review of Recent Developments on the Structure, Molecular Biology, and Function, J. Steroid Biochem. Mol. Biol., Vol. 40:735-53 (1991). A variety of methods have been used to quantify the serum concentrations of SHBG, including ammonium sulfate precipitation, gel filtration, equilibrium dialysis, dextran-coated charcoal, and radioimmunoassay. See, for example, Khan et al., Radioimmunoassay for Human Testosterone-Estradiol-Binding Globulin, J. Clinical Endocrinology and Metabolism, Vol. 54:705-710 (1982). […] Serum SHBG levels are known to be elevated in women treated with oral estrogens, estrogen-containing oral contraceptives, clomiphene, tamoxifen, raloxifene, phenytoin, and sodium valproate, as well as in women who are pregnant, hyperthyroid, have chronic liver disease and HIV-infection. See for example, Bond et al., Sex Hormone Binding Globulin in Clinical Perspective, Acta. Obstet. Gynecol. […]

Row | SMILES | SHBG
1 | C[C@]12CC[C@@H]3c4ccc(O)cc4CC[C@H]3[C@@H]1CC[C@@H]2O [estradiol] | 90.8 ± 12.9 nmol/L

Target: T1, sex hormone binding globulin (SHBG) (Homo sapiens, UniProt P04278)
T1 sequence (P04278 30-402): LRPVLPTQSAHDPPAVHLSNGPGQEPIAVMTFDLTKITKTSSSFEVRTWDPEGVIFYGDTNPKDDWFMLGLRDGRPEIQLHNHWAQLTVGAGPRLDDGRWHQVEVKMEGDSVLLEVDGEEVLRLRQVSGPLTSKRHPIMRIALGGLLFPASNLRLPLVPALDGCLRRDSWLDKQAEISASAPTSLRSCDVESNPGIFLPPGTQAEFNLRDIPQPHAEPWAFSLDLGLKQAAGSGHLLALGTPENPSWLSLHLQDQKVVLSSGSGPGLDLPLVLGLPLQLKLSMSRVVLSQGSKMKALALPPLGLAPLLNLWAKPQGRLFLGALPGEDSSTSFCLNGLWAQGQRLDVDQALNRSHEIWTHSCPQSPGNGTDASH
Experiment: not given
Settings: adapted from Dunn et al. 1981; human plasma; cited from earlier work

Row | SMILES | K (binding affinity constant for SHBG)
2 | CC(=O)[C@@]1(O)CC[C@H]2[C@@H]3CCC4=CC(=O)CC[C@]4(C)[C@H]3CC[C@@]21C [17-hydroxyprogesterone] | 9.9 10^6 Liter/mole
3 | C[C@]12CCC(O)C[C@@H]1CC[C@@H]1[C@@H]2CC[C@]2(C)[C@@H](O)CC[C@@H]12 (some centres unmarked) [androstanediol] | 1300 10^6 Liter/mole
4 | C[C@]12CCC(=O)C=C1CC[C@@H]1[C@@H]2CC[C@]2(C)C(=O)CC[C@@H]12 [androstenedione] | 29 10^6 Liter/mole
5 | C[C@]12CC[C@@H](O)C[C@@H]1CC[C@@H]1[C@@H]2CC[C@]2(C)C(=O)CC[C@@H]12 [androsterone] | 14 10^6 Liter/mole
6 | C[C@]12CC[C@H](O)CC1=CC[C@@H]1[C@@H]2CC[C@]2(C)C(=O)CC[C@@H]12 [dehydroepiandrosterone] | 66 10^6 Liter/mole
7 | C[C@]12CCC(=O)C[C@@H]1CC[C@@H]1[C@@H]2CC[C@]2(C)[C@@H](O)CC[C@@H]12 [dihydrotestosterone] | 5500 10^6 Liter/mole
8 | C[C@]12CC[C@@H]3c4ccc(O)cc4CC[C@H]3[C@@H]1C[C@@H](O)[C@@H]2O [estriol] | 4.3 10^6 Liter/mole
9 | CC(=O)[C@H]1CC[C@H]2[C@@H]3CCC4=CC(=O)CC[C@]4(C)[C@H]3CC[C@]12C [progesterone] | 8.8 10^6 Liter/mole

System: SHBG
Experiment: not given
Settings: known from literature (Bond et al. 1987; Miller et al. 1998); cited from earlier work

Row | SMILES | Serum SHBG levels in women treated
10 | CCN(CC)CCOc1ccc(C(=C(Cl)c2ccccc2)c2ccccc2)cc1 [clomiphene] | elevated
11 | O=C1NC(=O)C(c2ccccc2)(c2ccccc2)N1 [phenytoin] | elevated
12 | O=C(c1ccc(OCCN2CCCCC2)cc1)c1c(-c2ccc(O)cc2)sc2cc(O)ccc12 [raloxifene] | elevated
13 | CCCC(CCC)C(=O)[O-].[Na+] [sodium valproate] | elevated
14 | CC/C(=C(\c1ccccc1)c1ccc(OCCN(C)C)cc1)c1ccccc1 [tamoxifen] | elevated
